Reference: US20120245186A1, “COMBINATION CANCER THERAPY WITH HSP90 INHIBITORY COMPOUNDS” (SYNTA PHARMACEUTICALS CORP., priority 2009, published 2012)
Where two headings read alike, the source gives them in different places.

How the values were obtained:
[1] = tested on: human NSCLC cell line NCI-H1975; assay type: in vivo; conditions: 3 doses, day 32, SCID mice
Description: FBS was obtained from ATCC and all other reagents were obtained from Invitrogen Corp. (Carlsbad, Calif., USA). Cells that had been cryopreserved in liquid nitrogen were rapidly thawed at 37° C. and transferred to a tissue culture flask containing growth media and then incubated at 37° C. in a 5% CO2 incubator. […] To inactivate the trypsin, 5 mL of growth media was added and then the contents of the flask were centrifuged to pellet the cells. The supernatant was aspirated and the cell pellet was resuspended in 10 mL of growth media and the cell number determined using a hemocytometer. Cells were seeded into 175 cm^2 flasks containing 50 mL of growth media and incubated at 37° C. in a 5% CO2 incubator.
(§1) Animals were housed 4-5/cage in micro-isolators, with a 12 hr/12 hr light/dark cycle, acclimated for at least 1 week prior to use and fed normal laboratory chow ad libitum.

H1975 cells = experiment: Single agent IC50 in H1975 cells, alamarBlue viability (Example 2); assay type: cell-based, human; conditions: XLFit
Description: After 72 h exposure to either drug, viability was determined by alamarBlue, data from which was used to calculate the IC50 values using XLFit software (ID Business Solutions).

[2] = tested on: NCI-H1975 non-small cell lung carcinoma cells; experiment: Single agent IC50, alamarBlue cell viability (Example 3), NCI-H1975; assay type: cell-based, human; conditions: XLFit
Description: (§2) Cell viability was measured using the alamarBlue assay. In brief, cells were plated in 96-well plates in triplicate at 2000 cells per well (H1975) or 5000 cells per well (HEL92.1.7) and incubated at 37° C., 5% CO2 atmosphere for 24 hr prior to the addition of drug or vehicle (0.3% DMSO) to the culture medium. After 72 hr, 10 μl/well alamarBlue was added to the wells and incubated for an additional 3 hr at 37° C., 5% CO2 atmosphere. Fluorescence (560EX/590EM […]) was measured with a SpectraMax microplate reader (Molecular Devices) and the resulting data were used to calculate cell viability, normalized to vehicle control. […] After 72 hr exposure to drug, cell viability was measured.

[3] = tested on: HEL92.1.7 erythroleukemia cells; experiment: Single agent IC50, alamarBlue cell viability (Example 3), HEL92.1.7; assay type: cell-based, human; conditions: XLFit
Description: as §2

HT29 colon cancer cells = experiment: Single agent IC50, alamarBlue cell viability (Example 3), HT29; assay type: cell-based, human; conditions: XLFit
[4] = tested on: HCC827 human non-small cell lung cancer (NSCLC) cells; assay type: in vivo; conditions: day 40, SCID mice
Excerpt: as §1

[5] = 72 hr exposure, read-out: Single agent IC50 values, HEL-92.1.7

| SMILES | % T/C value ([1]; paclitaxel 7.5 mg/kg i.v. 1 time per week) [%] | IC50 (H1975 cells; 72 h exposure) [nM] | IC50 ([2]; 72 hr exposure) [nM] | IC50 [3, 5] [nM] | IC50 (HT29 colon cancer cells; 72 hr exposure) [nM] | % T/C value ([4]; docetaxel 4 mg/kg 1×/week) [%] | % T/C value ([1]; Compound 1 50 mg/kg i.v. 1 time per week) [%] | IC50 (H1975 cells; Homo sapiens, NCI-H1975, 72 h exposure) [nM] | IC50 ([2]; Homo sapiens, NCI-H1975, 72 hr exposure) [nM] | IC50 ([3]; Homo sapiens, HEL 92.1.7, 72 hr exposure) [nM] | IC50 (HT29 colon cancer cells; Homo sapiens, HT-29, 72 hr exposure) [nM] | % T/C value ([4]; Compound 1 75 mg/kg 1×/week) [%] |
| --- | --- | --- | --- | --- | --- | --- | --- | --- | --- | --- | --- | --- |
| CC(=O)O[C@H]1C(=O)[C@@]2(C)[C@H]([C@H](OC(=O)c3ccccc3)[C@]3(O)C[C@H](OC(=O)[C@H](O)[C@@H](NC(=O)c4ccccc4)c4ccccc4)C(C)=C1C3(C)C)[C@]1(OC(C)=O)CO[C@@H]1C[C@@H]2O [paclitaxel] | 38 | 7 | 4 | 25 | – | – | – | – | – | – | – | – |
| CC(=O)O[C@@]12CO[C@@H]1C[C@H](O)[C@@]1(C)C(=O)[C@H](O)C3=C(C)[C@@H](OC(=O)[C@H](O)[C@@H](NC(=O)OC(C)(C)C)c4ccccc4)C[C@@](O)([C@@H](OC(=O)c4ccccc4)[C@H]21)C3(C)C [docetaxel] | – | – | 1 | 14 | 0.6 | 46 | – | – | – | – | – | – |
| CC(C)c1cc(-c2nnc(O)n2-c2ccc3c(ccn3C)c2)c(O)cc1O [Compound 1, 3-(2,4-dihydroxy-5-isopropyl-phenyl)-4-(1-methyl-indol-5-yl)-5-hydroxy-[1,2,4] triazole] | – | – | – | – | – | – | 55 | 15 | 13 | 32 | 36 | 26 |
